Test results: ChEMBL document CHEMBL1140156, “Polyoxygenated diterpenes from the sponge Phorbas sp” (2008)
≈ marks a conversion by molar mass, not a printed value. Calls of active or inactive are those of the source. The calls are words filed in the database; no cut-off is given here.

Experiments:
K562 = test: Cytotoxicity against human K562 cells; format: functional; conditions: for CC50: read-out: LC50 (the source's name)
[1] = Inhibition of isocitrate lyase

| SMILES | Activity (K562) | Activity [1] | CC50 (K562) [µg/mL] | IC50 [1] [µg/mL] |
| --- | --- | --- | --- | --- |
| CC(C)=CCCC(C)/C=C/C=C(\C)[C@H]1CC[C@H](C(=O)O)CC1 (some centres undefined) | inactive | inactive |  |  |
| CCCC(=O)O[C@@H]1[C@@H](OC(C)=O)[C@@H](O)C(C)=C[C@@H]2[C@H]3[C@@H](C(C)C)[C@@H](OC(=O)CC(C)C)[C@H](OC(=O)CCC)[C@@]3(C)[C@@H](OC(=O)CCC)C[C@]21C [GAGUNIN A] |  |  | 18.1 (≈ 25.6 µM) | 55 (≈ 77.8 µM) |
| CCCC(=O)O[C@@H]1[C@H](C(C)C)[C@@H]2[C@H]3C=C(C)[C@H](O)[C@H](OC(C)=O)[C@@H](OC(=O)CCC)[C@]3(C)C[C@H](OC(=O)CCC)[C@]2(C)[C@H]1OC(=O)CCC [GAGUNIN B] |  |  | 3.5 (≈ 5.05 µM) | 55 (≈ 79.4 µM) |
| CCCC(=O)O[C@@H]1[C@H](C(C)C)[C@@H]2[C@H]3C=C(C)[C@H](O)[C@H](OC(C)=O)[C@@H](OC(=O)CCC)[C@]3(C)C[C@H](OC(=O)CCC)[C@]2(C)[C@H]1OC(C)=O [GAGUNIN C] |  |  | 0.37 (≈ 0.557 µM) | 55 (≈ 82.7 µM) |
| CCCC(=O)O[C@H]1C[C@]2(C)[C@H]([C@H]1C(C)C)[C@H]1C=C(C)[C@H](O)[C@H](OC(C)=O)[C@@H](OC(=O)CCC)[C@]1(C)C[C@@H]2OC(=O)CCC [GAGUNIN D] |  |  | 0.19 (≈ 0.313 µM) | 55 (≈ 90.6 µM) |
| CCCC(=O)O[C@H]1C[C@]2(C)[C@H]([C@H]1C(C)C)[C@H]1C=C(C)[C@H](OC(C)=O)[C@H](O)[C@@H](OC(=O)CCC)[C@]1(C)C[C@@H]2OC(=O)CCC [GAGUNIN F] |  |  | 0.25 (≈ 0.412 µM) | 55 (≈ 90.6 µM) |
| CCCC(=O)O[C@H]1C[C@]2(C)[C@H](C=C(C)[C@H](OC(C)=O)[C@H](O)[C@H]2OC(=O)CCC)[C@H]2[C@@H](C(C)C)[C@@H](OC(C)=O)C[C@]21C [GAGUNIN G] |  |  | 0.45 (≈ 0.778 µM) | 55 (≈ 95 µM) |
| CCCC(=O)O[C@@H]1[C@H](C(C)C)[C@@H]2[C@H]3C=C(C)[C@H](O)[C@H](OC(C)=O)[C@@H](OC(=O)CCC)[C@]3(C)C[C@H](OC(=O)CC)[C@]2(C)[C@H]1OC(=O)CCC [GAGUNIN H] |  |  | 10 (≈ 14.7 µM) | 55 (≈ 81 µM) |
| CCCC(=O)O[C@@H]1[C@H](C(C)C)[C@@H]2[C@H]3C=C(C)[C@H](O)[C@H](OC(C)=O)[C@@H](OC(=O)CCC)[C@]3(C)C[C@H](OC(C)=O)[C@]2(C)[C@H]1OC(=O)CCC [GAGUNIN I] |  |  | 11.5 (≈ 17.3 µM) | 55 (≈ 82.7 µM) |
| CCCC(=O)O[C@@H]1[C@H](C(C)C)[C@@H]2[C@H]3C=C(C)[C@H](O)[C@H](OC(C)=O)[C@@H](OC(=O)CCC)[C@]3(C)C[C@H](OC(=O)CCC)[C@]2(C)[C@H]1OC(=O)CC [GAGUNIN J] |  |  | 9.1 (≈ 13.4 µM) | 55 (≈ 81 µM) |
| CCCCC(=O)O[C@@H]1[C@H](C(C)C)[C@@H]2[C@H]3C=C(C)[C@H](O)[C@H](OC(C)=O)[C@@H](OC(=O)CCC)[C@]3(C)C[C@H](OC(=O)CCC)[C@]2(C)[C@H]1OC(=O)CCC [GAGUNIN K] |  |  | 17.5 (≈ 24.8 µM) | 55 (≈ 77.8 µM) |
| CCCC(=O)O[C@H]1C[C@]2(C)[C@H]([C@H]1C(C)C)[C@H]1C=C(C)[C@H](O)[C@H](OC(C)=O)[C@@H](OC(=O)CCC)[C@]1(C)C[C@@H]2OC(C)=O [GAGUNIN L] |  |  | 12.5 (≈ 21.6 µM) | 55 (≈ 95 µM) |
| CCCC(=O)O[C@H]1C[C@]2(C)[C@H]([C@H]1C(C)C)[C@H]1C=C(C)[C@H](O)[C@H](OC(C)=O)[C@@H](OC(=O)CCC)[C@]1(C)C[C@@H]2OC(=O)CC(C)C [GAGUNIN M] |  |  | 0.71 (≈ 1.14 µM) | 55 (≈ 88.6 µM) |
| CCCC(=O)O[C@H]1C[C@]2(C)[C@H]([C@H]1C(C)C)[C@H]1C=C(C)[C@H](OC(C)=O)[C@H](O)[C@@H](OC(=O)CCC)[C@]1(C)C[C@@H]2OC(C)=O [GAGUNIN N] |  |  | > 50 | 55 (≈ 95 µM) |
| CCCC(=O)O[C@@H]1[C@H](C(C)C)[C@@H]2[C@H]3C=C(C)[C@H](OC(C)=O)[C@H](O)[C@@H](OC(=O)CCC)[C@]3(C)C[C@H](OC(=O)CCC)[C@]2(C)[C@H]1OC(=O)CCC [GAGUNIN O] |  |  | 11.1 (≈ 16 µM) | 55 (≈ 79.4 µM) |
| CCCC(=O)O[C@@H]1[C@H](C(C)C)[C@@H]2[C@H]3C=C(C)[C@H](O)[C@H](OC(C)=O)[C@@H](OC(C)=O)[C@]3(C)C[C@H](OC(=O)CCC)[C@]2(C)[C@H]1OC(=O)CCC [GAGUNIN P] |  |  | 8.5 (≈ 12.8 µM) | 55 (≈ 82.7 µM) |
| CCCC(=O)O[C@@H]1[C@H](C(C)C)[C@@H]2[C@H]3C=C(C)[C@H](O)[C@H](OC(=O)CC)[C@@H](OC(=O)CCC)[C@]3(C)C[C@H](OC(=O)CCC)[C@]2(C)[C@H]1OC(=O)CCC [GAGUNIN Q] |  |  | > 50 | 55 (≈ 77.8 µM) |
